The values below come from US20100255020A1, “METHOD FOR INDUCING CYTOTOXIC T-CELLS, CYTOTOXIC T-CELL INDUCERS, AND PHARMACEUTICAL COMPOSITIONS AND VACCINES EMPLOYING THEM” (NEC CORPORATION, priority 2007, published 2010).

Where no end group is shown, it is not given here.

One series deals with HLA-A*0201 molecule (Homo sapiens, UniProt P04439, D140Y/D185E/D98H/E176V/E277Q/G131W/G231S/I119V/I121R/I166T/I218V/L300P/L318F/N151K/N90K/P208A/P217A/Q86G/Q94H/R138H/R169H/T345S). Nature of the series: Peptide binding to HLA-A*0201 molecule on JY cells (flow cytometry, Kd). As to conditions: HLA-A*0201, JY cells. On the procedure: The ability of a peptide to bind to an HLA-A*0201 molecule, which is a product of the HLA-A*0201 gene, was measured using strain JY cells expressing the HLA-A*0201 molecule.
JY cells were first exposed to acidic conditions at a pH of 3.8 for 30 seconds, thus dissociating and removing a β2m light chain and an endogenous peptide, which were noncovalently associated with the HLA-A* 0201 molecule. After neutralization, a reconstitution experiment was carried out.
The above-mentioned JY cells and the purified […] were added to serial dilutions of peptide for which the binding ability needs to be measured, and incubation was carried out on ice for 4 hours. HLA-A*0201 molecules that had reassociated up to this time point were stained using the fluorescently-labeled monoclonal antibody BB7.2, a conformation dependent monoclonal Ab specific for an assembled form of HLA-A*0201 molecule.
Subsequently, the amount of fluorescence per cell was measured using a flow cytometer and a dissociation constant Kd value was calculated by a method published in the literature (Udaka et al., Immunogenetics, 51, 816-828, 2000).

The test system of series [1] is prostate-specific antigen (PSA). Nature of the series: Prostate tumor marker PSA during W10 peptide immunotherapy. Type of series: in vivo, human. On the procedure:
After the gradual increase the dose was fixed to 3 mg of W10 peptide+Wc and immunotherapy was continued. […] The day when 1 mg of W10 peptide on its own was first administered was presented as day 0. Arrows with dotted line indicates the period when 3 mg of W10 without Wc was injected for safety test (W10). The period where Wc was further added to W10 is also indicated with arrows with solid line (W10+Wc). […] Therefore, osteolytic lesions were measured as the size of tumors. […] Around May 2008, PSA gradually started to increase again, and pain started in the right femur. From the end of July 2008, a taxotere+Predonin therapy was started. W10+Wc immunotherapy was continued along with chemotherapy.
Immunotherapy was started with 3 mg W10 peptide while monitoring safety, then dose escalation was put forward with W10 peptide 1 mg+Wc, followed by 3 mg of W10 peptide+Wc. Eventually, the dose was fixed at this level and weekly immunization was continued. […] The day the immunization was started with 3 mg of W10 without Wc was set as day 0. […] For about half a year, PSA was stable at less than 0.1 (FIG. 14 a). […] When the immunotherapy was resumed, PSA decreased. After this incident, PSA started to show gradual increase. […] The size of a pubic bone metastatic tumor has been maintained within SD for 37 weeks on the RECIST standard so far (FIG. 14 b). […]

Series [2] relates to peptide-loaded target cells (C1R-A24, RA24, T2). Description: 51Cr release assay of PBMC killing activity against peptide-loaded target cells. Type of series: cell-based, human. On the procedure: Target cells were labeled with ^51Cr and loaded with HLA-binding peptide of interest. 5,000 or 10,000 cells/well of target cells were placed in 96-well U-bottom plate, and then, PBMCs having been stimulated twice in vitro were added thereto as a responder. Cells were incubated at 37° C. for 5 hours and ^51Cr released from the damaged cells during the incubation was measured, and % specific lysis was calculated. As target cells C1R-A24 or RA24 cells were used as a target when reactivity to HLA-A*2402 binding peptides were examined, and T2 cells were used as a target and incubation was carried out for 2 hours after addition of responder cells. Percent specific lysis was calculated as follows. % specific lysis=(test release-spontaneous release)/(total release-spontaneous release)×100.

The subject of series [3] is W10-specific CD8 positive T cells. Nature of the series: HLA-A24 tetramer flow cytometry of peptide-specific T cells. It counts as cell-based, human. As to conditions: patient KB07-006, PBMCs incubated with W10 peptide. The method, then:
HLA-A24 tetramer was prepared by modifying a method by Altman et al. (Altman, J D, Moss, P A., Goulder, P J, Barouch, D H, McHeyzer-Williams, M G, Bell, J I, McMichael, A J, Davis, M M. Phenotypic analysis of antigen-specific T lymphocytes. Science […] 274, 94-96.)
HLA-A24 tetramer was prepared by expressing an HLA-A*2402 molecule in E. coli and W10 peptide was bound thereto. Furthermore, the C-terminus of the complex was modified by a site-specific biotinyltion. The product was then complexed with streptavidin (SA), giving rise to a molecular assembly consisting of 4 molecules of W10-bound HLA-A*2402 molecules and 1 SA.
Here in this assay, T cells specific for a HLA-A24-W10 complex was fluorescently labeled with […] (phycoerythrin) conjugated SA and antigen specific T cells were identified by flow cytometry.
cDNAs of HLA-A*2402, which is an H-chain constituting an HLA-A*2402 molecule, and human β2m 02-microglobulin) which is a light chain, were inserted into a pET-21d+vector (Novagen, Merck) under T7 promoter, respectively. The resultant vector was introdyced into E. coli BL21 (DE3) pLysS, and expression of the gene was induced using IPTG. […]
This HLA-A*2402-W10 monomer was associated with PE-labeled SA at a molecular ratio of 4:1, thus preparing HLA tetramer. […] T cells were incubated with HLA-A*2402-W10 or HLA-A*2402-HER2-63 on ice for 1 hour and then analyzed by flow cytometry.
(Flow cytometry measures light scatter and fluorescence of single cells or particles in a stream.)

For series [4] the following is noted: human, in vivo.

ALLPAVPSL [W10]: the “Binding assay data (−log Kd)” value on HLA-A*0201 molecule was 7.84. Further, in series [1] (patient KB07-003, prostate cancer, stable for about half a year), the PSA result is on record as “less than 0.1”. The “PSA after starting immunotherapy” value in series [1] (patient KB07-005, prostate cancer) is on record as “around 0.04”. Moreover, the “Peptide-reactive cytolytic cells in PBMCs of patients” value is recorded as “contain cytolytic cells that recognize” in series [2] (HLA-A*0201 binding peptides, T2 targets); “cytolytic cells include those reactive” in series [2] (HLA-A*2402 binding peptides, FIG. 9a and b). Besides, the “W10-specific CD8 positive T cells (HLA-A24-W10 tetramer staining)” value in series [3] was “increased”. Moreover, the “Adverse event due to peptide immunotherapy” value in series [4] was “no adverse event due to peptide immunotherapy was observed, except for an erythema and mild swelling at the site of immunization”. In series [4], the “Creatinine (Cre) adverse event” value is reported as “Grade 2 increase of Cre”.
